Reference: publication PMC11647902, “Design, Synthesis, and Biological Evaluation of [1,2,5]Oxadiazolo[3,4-b]pyridin-7-ol as Mitochondrial Uncouplers for the Treatment of Obesity and Metabolic Dysfunction-Associated Steatohepatitis” (Journal of Medicinal Chemistry, 2024)

Test system: L6 rat myoblasts
Assay: OCR Seahorse assay (oxygen consumption rate, mitochondrial uncoupling)
Details: for uncoupling (OCR) activity in words / % of BAM15 OCR / cellular toxicity in OCR assay: L6 myoblasts; for % of BAM15 OCR / Emax at 200 µM: integrated area under OCR dose curve above baseline relative to BAM15 of same experiment; for Emax at 200 µM: L6, read-out: % of BAM15 OCR, L6 myoblasts; for cellular toxicity in OCR assay: at higher concentrations
[1] = NA = No Activity, highest tested concentration 200 μM
[2] = OCR in L6 myoblasts, NA = No Activity, highest tested concentration 200 μM
[3] = Rattus norvegicus, NA = No Activity, highest tested concentration 200 μM

Procedure: With 7 and 9 derivatives in hand, we screened for mitochondrial uncoupling activity as a function of oxygen consumption rate (OCR). […] OCR was measured using an Agilent Seahorse XF24 or XFe96 Analyzer (Agilent Technologies, Santa Clara, CA). L6 myoblasts were seeded in a Seahorse 24 or 96-well tissue culture plate at a density of 3.5 × 10^4 cells/well. The cells were then allowed to adhere overnight. […] Compounds were injected during the assay, and OCR was measured using 2 min measurement periods. Cells were treated with a single drug concentration per well and measured over a 90 min period. Two wells were used per condition and, where applicable, results from multiple plates were averaged together. The first three measurements after injection for each concentration were averaged to produce a dose curve. […] AUC values were also calculated using the same software.

Row | Compound | EC50 (Rattus norvegicus, L6) | Emax at 200 µM [3] | further results
1 | Oc1c(-c2ccc(-c3ccc(F)cc3)cc2)cnc2nonc12 [9h, 6-(4′-Fluoro-[1,1′-biphenyl]-4-yl)-[1,2,5]oxadiazolo[3,4-b]pyridin-7-ol] |  |  | uncoupling (OCR) activity in words: inactive
2 | 6-([1,1′-Biphenyl]-2-ylamino)-[1,2,5]oxadiazolo[3,4-b]pyridin-7-ol [7aj] |  |  | % of BAM15 OCR [1]: 20%; EC50 [2]: 6 ± 1.2 µM
3 | Oc1c(Nc2ccc(-c3ccc(C(F)(F)F)nc3)cc2)cnc2nonc12 [7ar, 6-((4-(6-(Trifluoromethyl)pyridin-3-yl)phenyl)amino)-[1,2,5]oxadiazolo[3,4-b]pyridin-7-ol] | 7 ± 1.9 µM | 17% | 
4 | Oc1c(-c2cccc(Cl)c2)cnc2nonc12 [9c, 6-(3-Chlorophenyl)-[1,2,5]oxadiazolo[3,4-b]pyridin-7-ol] | 25 ± 3.1 µM | 61% | 
5 | Oc1c(Nc2c(F)c(F)c(F)c(F)c2F)cnc2nonc12 [7z, 6-((Perfluorophenyl)amino)-[1,2,5]oxadiazolo[3,4-b]pyridin-7-ol] | 18 ± 2.4 µM | 50% | 
6 | Oc1c(Nc2ccc(-c3cccc(C(F)(F)F)c3)cc2)cnc2nonc12 [7an, 6-((3′-(Trifluoromethyl)-[1,1′-biphenyl]-4-yl)amino)-[1,2,5]oxadiazolo[3,4-b]pyridin-7-ol] | 0.5 ± 0.1 µM | 25% | cellular toxicity in OCR assay: showed cellular toxicity at higher concentrations
7 | Oc1c(Nc2cc(F)ccc2C(F)(F)F)cnc2nonc12 [7af, 6-((5-Fluoro-2-(trifluoromethyl)phenyl)amino)-[1,2,5]oxadiazolo[3,4-b]pyridin-7-ol] | 25 ± 12 µM | 54% | 
8 | Oc1c(Nc2ccc(SC(F)(F)F)cc2)cnc2nonc12 [7h, 6-((4-((Trifluoromethyl)thio)phenyl)amino)-[1,2,5]oxadiazolo[3,4-b]pyridin-7-ol] | 6 ± 0.4 µM | 38% | 
9 | Oc1c(-c2ccccc2Cl)cnc2nonc12 [9b, 6-(2-Chlorophenyl)-[1,2,5]oxadiazolo[3,4-b]pyridin-7-ol] | 85 ± 16 µM | 49% | 
10 | Oc1c(Nc2cccc(C(F)(F)F)c2F)cnc2nonc12 [7ab, 6-((2-Fluoro-3-(trifluoromethyl)phenyl)amino)-[1,2,5]oxadiazolo[3,4-b]pyridin-7-ol] | 43 ± 5.2 µM | 71% | 
11 | Oc1c(Nc2ccc(-c3ccc(C(F)(F)F)cc3)cc2)cnc2nonc12 [7aq, 6-((4′-(Trifluoromethyl)-[1,1′-biphenyl]-4-yl)amino)-[1,2,5]oxadiazolo[3,4-b]pyridin-7-ol] |  |  | uncoupling (OCR) activity in words: not tolerated; cellular toxicity in OCR assay: exhibited toxicity
12 | Oc1c(Nc2cc(C(F)(F)F)c(F)cc2F)cnc2nonc12 [7ae, 6-((2,4-Difluoro-5-(trifluoromethyl)phenyl)amino)-[1,2,5]oxadiazolo[3,4-b]pyridin-7-ol] | 40 ± 4.5 µM | 48% | 
13 | Oc1c(Nc2ccccc2F)cnc2nonc12 [7m, 6-((2-Fluorophenyl)amino)-[1,2,5]oxadiazolo[3,4-b]pyridin-7-ol] | 32 ± 1.8 µM | 69% | increase of BAM15 uncoupling capability compared with the nonsubstituted aniline (7m versus 7a): 72%
14 | Oc1c(-c2cccc(C(F)(F)F)c2)cnc2nonc12 [9d, 6-(3-(Trifluoromethyl)phenyl)-[1,2,5]oxadiazolo[3,4-b]pyridin-7-ol] | 26 ± 4.5 µM | 59% | cellular toxicity in OCR assay: exhibited cellular toxicity at higher concentrations
15 | Oc1c(Nc2c(F)cccc2C(F)(F)F)cnc2nonc12 [7ad, 6-((2-Fluoro-6-(trifluoromethyl)phenyl)amino)-[1,2,5]oxadiazolo[3,4-b]pyridin-7-ol] | 28 ± 3.9 µM | 55% | 
16 | CC(C)(C)c1ccc(Nc2cnc3nonc3c2O)cc1 [7e, 6-((4-(tert-Butyl)phenyl)amino)-[1,2,5]oxadiazolo[3,4-b]pyridin-7-ol] | 2 ± 0.4 µM | 7% | 
17 | Oc1c(Nc2ccccc2C(F)(F)F)cnc2nonc12 [7q, 6-((2-(Trifluoromethyl)phenyl)amino)-[1,2,5]oxadiazolo[3,4-b]pyridin-7-ol] | 34 ± 4 µM | 57% | 
18 | Oc1c(Nc2cc(F)cc(C(F)(F)F)c2)cnc2nonc12 [7ag, 6-((3-Fluoro-5-(trifluoromethyl)phenyl)amino)-[1,2,5]oxadiazolo[3,4-b]pyridin-7-ol] | 40 ± 0.9 µM | 38% | 
19 | Oc1c(Nc2ccc(F)nc2)cnc2nonc12 [7k, 6-((6-Fluoropyridin-3-yl)amino)-[1,2,5]oxadiazolo[3,4-b]pyridin-7-ol] |  |  | uncoupling (OCR) activity in words: inactive
20 | Oc1c(Nc2cc(C(F)(F)F)ccc2F)cnc2nonc12 [7ac, 6-((2-Fluoro-5-(trifluoromethyl)phenyl)amino)-[1,2,5]oxadiazolo[3,4-b]pyridin-7-ol] | 11 ± 6.7 µM | 55% | 
21 | CCCCc1ccc(Nc2cnc3nonc3c2O)cc1 [7d, 6-((4-Butylphenyl)amino)-[1,2,5]oxadiazolo[3,4-b]pyridin-7-ol] |  | 19% | 
22 | Oc1c(-c2cccs2)cnc2nonc12 [9g, 6-(Thiophen-2-yl)-[1,2,5]oxadiazolo[3,4-b]pyridin-7-ol] | 40 ± 0.3 µM | 36% | uncoupling (OCR) activity in words: poor activity

Row | Compound | EC50 (Rattus norvegicus, L6) | Emax at 200 µM [3] | further results
23 | 6-((4-Butoxyphenyl)amino)-[1,2,5]oxadiazolo[3,4-b]pyridin-7-ol [7f] |  |  | % of BAM15 OCR [1]: 20%; EC50 [2]: 6 µM
24 | Oc1c(Nc2cc(F)ccc2F)cnc2nonc12 [7v, 6-((2,5-Difluorophenyl)amino)-[1,2,5]oxadiazolo[3,4-b]pyridin-7-ol] | 64 ± 5.3 µM | 69% | 
25 | Oc1c(Nc2ccc(F)c(F)c2F)cnc2nonc12 [7y, 6-((2,3,4-Trifluorophenyl)amino)-[1,2,5]oxadiazolo[3,4-b]pyridin-7-ol] | 44 ± 3.6 µM | 68% | 
26 | CC(C)(C#N)c1ccc(Nc2cnc3nonc3c2O)cc1 [7g, 2-(4-((7-Hydroxy-[1,2,5]oxadiazolo[3,4-b]pyridin-6-yl)amino)phenyl)-2-methylpropanenitrile] | > 100 µM | 10% | 
27 | Oc1c(-c2ccccc2F)cnc2nonc12 [9a, 6-(2-Fluorophenyl)-[1,2,5]oxadiazolo[3,4-b]pyridin-7-ol] | 27 ± 2.8 µM | 69% | 
28 | Oc1c(Nc2ccc(C(F)(F)F)cc2)cnc2nonc12 [7s, 6-((4-(Trifluoromethyl)phenyl)amino)-[1,2,5]oxadiazolo[3,4-b]pyridin-7-ol] | 35 ± 1.7 µM | 43% | 
29 | Oc1c(Nc2ccccc2Cl)cnc2nonc12 [7p, 6-((2-Chlorophenyl)amino)-[1,2,5]oxadiazolo[3,4-b]pyridin-7-ol] | 27 ± 1.9 µM | 69% | 
30 | Oc1c(Nc2ccc(-c3ccccc3F)cc2)cnc2nonc12 [7ak, 6-((2′-Fluoro-[1,1′-biphenyl]-4-yl)amino)-[1,2,5]oxadiazolo[3,4-b]pyridin-7-ol] |  |  | uncoupling (OCR) activity in words: not tolerated
31 | Oc1c(Nc2ccc(-c3cc(C(F)(F)F)cc(C(F)(F)F)c3)cc2)cnc2nonc12 [7aw, 6-((3′,5′-Bis(trifluoromethyl)-[1,1′-biphenyl]-4-yl)amino)-[1,2,5]oxadiazolo[3,4-b]pyridin-7-ol] | 41 ± 4.9 µM | 20% | 
32 | Oc1c(Nc2cccc(C(F)(F)F)c2)cnc2nonc12 [7r, 6-((3-(Trifluoromethyl)phenyl)amino)-[1,2,5]oxadiazolo[3,4-b]pyridin-7-ol] | 22 ± 1.8 µM | 48% | 
33 | Oc1c(Nc2ccc(F)c(F)c2)cnc2nonc12 [7x, 6-((3,4-Difluorophenyl)amino)-[1,2,5]oxadiazolo[3,4-b]pyridin-7-ol] | 63 ± 3.7 µM | 55% | 
34 | Cc1ccc(Nc2cnc3nonc3c2O)cc1 [7b, 6-(p-Tolylamino)-[1,2,5]oxadiazolo[3,4-b]pyridin-7-ol] | 49 µM | 38% | 
35 | Oc1c(Nc2cccc(Cl)c2F)cnc2nonc12 [7aa, 6-((3-Chloro-2-fluorophenyl)amino)-[1,2,5]oxadiazolo[3,4-b]pyridin-7-ol] | 32 ± 1.9 µM | 68% | 
36 | Oc1c(Nc2cccc(F)c2F)cnc2nonc12 [7t, 6-((2,3-Difluorophenyl)amino)-[1,2,5]oxadiazolo[3,4-b]pyridin-7-ol] | 64 ± 3.3 µM | 60% | 
37 | Oc1c(Nc2ccc3ccccc3c2)cnc2nonc12 [7ax, 6-(Naphthalen-2-ylamino)-[1,2,5]oxadiazolo[3,4-b]pyridin-7-ol] | 13 ± 1.2 µM | 48% | 
38 | Oc1c(Nc2ccccc2)cnc2nonc12 [7a, 6-(Phenylamino)-[1,2,5]oxadiazolo[3,4-b]pyridin-7-ol] | 59 ± 3.4 µM | 40% | 
39 | CCc1ccc(Nc2cnc3nonc3c2O)cc1 [7c, 6-((4-Ethylphenyl)amino)-[1,2,5]oxadiazolo[3,4-b]pyridin-7-ol] | 14 ± 1.7 µM | 50% | 
40 | Oc1c(Nc2c(F)cccc2F)cnc2nonc12 [7w, 6-((2,6-Difluorophenyl)amino)-[1,2,5]oxadiazolo[3,4-b]pyridin-7-ol] | 52 ± 8.8 µM | 54% | 
41 | Oc1c(-c2ccc(C(F)(F)F)nc2)cnc2nonc12 [7l, 6-(6-(Trifluoromethyl)pyridin-3-yl)-[1,2,5]oxadiazolo[3,4-b]pyridin-7-ol] |  |  | uncoupling (OCR) activity in words: inactive
42 | Oc1c(Nc2ccc(F)cc2)cnc2nonc12 [7o, 6-((4-Fluorophenyl)amino)-[1,2,5]oxadiazolo[3,4-b]pyridin-7-ol] | > 100 µM | 32% | 
43 | Oc1c(Nc2ccc(-c3ccccc3)cc2F)cnc2nonc12 [7ah, 6-((3-Fluoro-[1,1′-biphenyl]-4-yl)amino)-[1,2,5]oxadiazolo[3,4-b]pyridin-7-ol] | 2 ± 0.5 µM | 10% | 
44 | Oc1c(Nc2cccc(F)c2)cnc2nonc12 [7n, 6-((3-Fluorophenyl)amino)-[1,2,5]oxadiazolo[3,4-b]pyridin-7-ol] | 51 ± 2.6 µM | 55% | 
